Experimental data published in patent US20090325975A1, “Use of compounds binding to the sigma receptor for the treatment of diabetes-associated pain” (priority 2005, published 2009).

Assays:
[1] = tested on: mechanical allodynia in STZ-induced mice; assay: von-Frey test, mechanical allodynia in STZ-induced diabetic mice; assay type: in vivo; conditions: paw withdrawal response to von-Frey filaments
Description: The pancreatic β-cell cytotoxic agent STZ is widely used to induce diabetes in rodents. The glucosamine-nitrosourea compound STZ is taken up into the insulin-producing β-cells of the islets of Langerhan's via the GLUT-2 glucose transporter. The cytotoxic effect of STZ is mediated through a decrease in NAD levels, and the formation of intracellular free radicals leading to various toxic effects, including DNA-strand breaks (Schnedl et al., 1994). […] STZ-induced diabetic rodents show common features of human diabetes that include damage to the eye, kidney, blood vessels, and nervous system. Diabetic neuropathic pain occurs mainly due to the damage in the nervous system (Sima and Sugimoto, 1999).
Method: In the present study, diabetes is induced in mice by a single i.v. injection of STZ (200 mg/kg) as reported previously (Kamei et al., 1991; Rashid and Ueda, 2002). […] The plasma glucose level in the mice is measured in blood samples obtained from tail vein. […]
Thermal hyperalgesia and mechanical allodynia is measured at different time points (1-21 days) after STZ injection. Mechanical allodynia is measured using von-Frey filaments, a well-established method known by those skilled in the art, where the paw withdrawal response is measured. Similarly, thermal hyperalgesia is measured as the latency to paw withdrawal evoked by exposing the right hind paw to a thermal stimulus. […]

[2] = target: sigma-1 (Homo sapiens, UniProt Q99720); conditions: cited from earlier work
[3] = target: sigma-2 (Homo sapiens, UniProt Q5BJF2); conditions: cited from earlier work
[4] = tested on: sigma receptor; conditions: result in words; cited from earlier work

Sequence of sigma-2 (Q5BJF2 whole entry): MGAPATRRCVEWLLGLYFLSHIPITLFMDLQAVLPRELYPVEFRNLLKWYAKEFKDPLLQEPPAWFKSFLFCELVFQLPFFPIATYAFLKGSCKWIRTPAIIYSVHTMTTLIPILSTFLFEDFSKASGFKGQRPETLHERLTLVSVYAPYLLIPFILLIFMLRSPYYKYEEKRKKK
Sequence of sigma-1 (Q99720 whole entry): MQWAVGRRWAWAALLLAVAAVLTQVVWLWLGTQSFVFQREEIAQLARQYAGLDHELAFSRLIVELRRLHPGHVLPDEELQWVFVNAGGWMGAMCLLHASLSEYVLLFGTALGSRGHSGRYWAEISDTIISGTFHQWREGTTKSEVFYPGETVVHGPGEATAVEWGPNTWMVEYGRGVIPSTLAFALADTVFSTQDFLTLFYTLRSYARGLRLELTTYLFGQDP

Structure (SMILES) | effect on mechanical allodynia in the von-Frey test [1] | IC50 [2] [nM] | IC50 [3] [nM] | affinity to the sigma receptor [4]
CN1CCN(CCc2ccc(Cl)c(Cl)c2)CC1 [BD-1063, 1-(3,4-dichlorophenethyl)-4-methylpiperazine] | significantly antagonizes mechanical allodynia | 30 | 800 | high affinity
CC(C)=CCN1CCC2(C)c3cc(O)ccc3CC1C2C (centres unmarked) [pentazocine] |  |  |  | very high affinity
